Measured values published in BindingDB's records for PubMed 35688004 (University of Hradec Kralove, 2022).
pIC50: −log10 of the molar value.

Key:
[1] = target: Phosphatidylinositol 4,5-bisphosphate 3-kinase catalytic subunit alpha isoform (Homo sapiens, UniProt P42336); test: Inhibition of human PI3Kalpha preincubated for 15 mins followed by ATP addition measured after 1 hr by TR-FRET assay
[2] = target: Phosphatidylinositol 4,5-bisphosphate 3-kinase catalytic subunit beta isoform (Homo sapiens, UniProt P42338); test: Inhibition of human PI3Kbeta preincubated for 15 mins followed by ATP addition measured after 1 hr by TR-FRET assay
Sequence of Phosphatidylinositol 4,5-bisphosphate 3-kinase catalytic subunit beta isoform (P42338 whole entry, canonical isoform): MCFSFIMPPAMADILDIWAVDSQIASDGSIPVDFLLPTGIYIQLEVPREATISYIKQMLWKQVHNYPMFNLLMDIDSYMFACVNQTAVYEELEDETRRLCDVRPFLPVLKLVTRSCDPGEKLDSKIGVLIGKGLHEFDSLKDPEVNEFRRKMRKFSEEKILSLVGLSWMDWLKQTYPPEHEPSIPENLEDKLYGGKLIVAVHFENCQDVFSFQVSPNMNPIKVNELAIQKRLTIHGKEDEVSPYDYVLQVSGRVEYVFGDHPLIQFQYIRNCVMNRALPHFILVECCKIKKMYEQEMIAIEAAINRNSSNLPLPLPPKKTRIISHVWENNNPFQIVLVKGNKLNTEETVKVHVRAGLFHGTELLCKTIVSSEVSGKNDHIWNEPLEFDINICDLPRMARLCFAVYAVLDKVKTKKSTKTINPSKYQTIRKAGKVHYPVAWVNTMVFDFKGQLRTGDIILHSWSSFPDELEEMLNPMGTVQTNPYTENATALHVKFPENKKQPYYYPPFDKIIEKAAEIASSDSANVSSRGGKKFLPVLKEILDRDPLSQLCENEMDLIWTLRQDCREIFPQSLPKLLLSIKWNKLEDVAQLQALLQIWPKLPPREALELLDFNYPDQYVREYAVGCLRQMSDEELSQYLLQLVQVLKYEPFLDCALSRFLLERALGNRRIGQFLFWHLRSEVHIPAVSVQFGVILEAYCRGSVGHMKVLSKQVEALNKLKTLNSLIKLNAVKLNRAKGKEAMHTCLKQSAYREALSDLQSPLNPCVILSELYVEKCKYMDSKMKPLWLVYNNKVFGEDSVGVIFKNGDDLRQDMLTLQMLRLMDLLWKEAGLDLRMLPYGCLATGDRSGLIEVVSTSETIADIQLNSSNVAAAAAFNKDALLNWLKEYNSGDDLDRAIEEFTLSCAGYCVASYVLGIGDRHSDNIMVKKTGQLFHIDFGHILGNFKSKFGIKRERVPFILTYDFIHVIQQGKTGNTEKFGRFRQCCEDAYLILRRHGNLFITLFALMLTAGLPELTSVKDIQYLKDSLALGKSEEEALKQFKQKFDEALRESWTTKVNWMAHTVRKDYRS

[3] = target: Phosphatidylinositol 4,5-bisphosphate 3-kinase catalytic subunit gamma isoform (Homo sapiens, UniProt P48736); test: Inhibition of human PI3Kgamma preincubated for 15 mins followed by ATP addition measured after 1 hr by TR-FRET assay
Sequence of Phosphatidylinositol 4,5-bisphosphate 3-kinase catalytic subunit gamma isoform (P48736 whole entry, canonical isoform): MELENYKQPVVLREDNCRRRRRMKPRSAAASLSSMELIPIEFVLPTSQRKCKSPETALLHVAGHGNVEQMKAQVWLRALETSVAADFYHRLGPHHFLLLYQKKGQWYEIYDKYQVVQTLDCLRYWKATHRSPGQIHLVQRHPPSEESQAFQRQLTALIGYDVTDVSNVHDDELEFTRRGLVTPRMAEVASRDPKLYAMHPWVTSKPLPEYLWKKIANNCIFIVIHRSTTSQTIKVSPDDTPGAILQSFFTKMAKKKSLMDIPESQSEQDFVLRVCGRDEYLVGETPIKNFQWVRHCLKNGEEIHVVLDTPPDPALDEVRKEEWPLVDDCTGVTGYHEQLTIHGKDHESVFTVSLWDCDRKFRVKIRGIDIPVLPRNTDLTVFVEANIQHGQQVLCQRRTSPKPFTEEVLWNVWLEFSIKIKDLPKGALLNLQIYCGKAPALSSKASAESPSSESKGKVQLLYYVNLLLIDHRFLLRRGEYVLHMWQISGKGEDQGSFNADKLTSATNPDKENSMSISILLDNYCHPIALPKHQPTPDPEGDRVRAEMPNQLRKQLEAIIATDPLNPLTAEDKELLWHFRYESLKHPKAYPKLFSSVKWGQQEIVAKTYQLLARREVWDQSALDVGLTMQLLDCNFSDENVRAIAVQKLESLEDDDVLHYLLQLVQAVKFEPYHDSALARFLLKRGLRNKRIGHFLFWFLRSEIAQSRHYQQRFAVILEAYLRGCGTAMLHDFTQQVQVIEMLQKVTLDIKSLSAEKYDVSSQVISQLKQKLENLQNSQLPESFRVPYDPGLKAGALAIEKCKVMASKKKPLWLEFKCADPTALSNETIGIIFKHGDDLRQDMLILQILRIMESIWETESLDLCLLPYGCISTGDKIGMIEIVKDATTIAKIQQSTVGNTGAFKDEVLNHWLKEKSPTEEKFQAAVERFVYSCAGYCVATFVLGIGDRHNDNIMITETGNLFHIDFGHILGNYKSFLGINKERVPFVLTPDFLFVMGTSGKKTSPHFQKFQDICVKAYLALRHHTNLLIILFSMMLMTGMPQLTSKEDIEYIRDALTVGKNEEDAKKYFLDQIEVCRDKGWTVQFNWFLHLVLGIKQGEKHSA

Sequence of Phosphatidylinositol 4,5-bisphosphate 3-kinase catalytic subunit alpha isoform (P42336 whole entry, canonical isoform): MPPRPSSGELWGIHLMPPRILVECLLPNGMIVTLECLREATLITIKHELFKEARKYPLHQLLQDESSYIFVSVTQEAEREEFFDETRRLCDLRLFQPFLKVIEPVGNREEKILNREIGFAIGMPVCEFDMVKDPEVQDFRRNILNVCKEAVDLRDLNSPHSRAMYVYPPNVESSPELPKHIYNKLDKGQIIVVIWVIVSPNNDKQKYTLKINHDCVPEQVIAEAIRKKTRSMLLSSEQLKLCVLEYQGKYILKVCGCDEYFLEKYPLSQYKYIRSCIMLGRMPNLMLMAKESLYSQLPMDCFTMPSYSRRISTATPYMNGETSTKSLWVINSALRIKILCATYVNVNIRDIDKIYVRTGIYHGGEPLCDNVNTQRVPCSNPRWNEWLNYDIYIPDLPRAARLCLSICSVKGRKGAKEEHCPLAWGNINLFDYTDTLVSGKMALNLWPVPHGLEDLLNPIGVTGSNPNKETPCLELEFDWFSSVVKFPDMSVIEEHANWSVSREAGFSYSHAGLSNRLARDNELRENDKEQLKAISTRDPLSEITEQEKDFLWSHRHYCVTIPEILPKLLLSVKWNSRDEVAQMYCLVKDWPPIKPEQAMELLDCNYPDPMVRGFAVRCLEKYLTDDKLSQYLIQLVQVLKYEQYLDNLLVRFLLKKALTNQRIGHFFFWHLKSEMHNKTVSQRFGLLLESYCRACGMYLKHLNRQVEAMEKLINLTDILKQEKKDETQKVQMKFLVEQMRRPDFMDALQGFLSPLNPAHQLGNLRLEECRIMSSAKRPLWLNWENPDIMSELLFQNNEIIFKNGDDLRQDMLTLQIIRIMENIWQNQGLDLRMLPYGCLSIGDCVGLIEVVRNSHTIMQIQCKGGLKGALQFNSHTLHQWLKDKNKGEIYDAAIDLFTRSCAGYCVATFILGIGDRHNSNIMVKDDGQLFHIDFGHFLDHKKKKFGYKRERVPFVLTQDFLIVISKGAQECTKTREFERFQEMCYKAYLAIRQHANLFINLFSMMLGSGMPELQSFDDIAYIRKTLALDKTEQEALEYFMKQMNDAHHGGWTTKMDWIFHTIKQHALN

Compound | pIC50 [1] | pIC50 [2] | pIC50 [3]
Nc1ncnc2c1c(-c1cc3cc(O)ccc3[nH]1)nn2C1CCOCC1 [US10172858, Table 2.42] | < 6.30 | < 6.30 | 
Nc1ncnc2c1c(-c1cc3cccc(O)c3[nH]1)nn2C1CCOCC1 [US10172858, Table 2.62] | < 6.30 | < 6.30 | < 6.30
CC(=O)N1CCC(n2nc(-c3cc4c(Cl)ccc(O)c4[nH]3)c3c(N)ncnc32)CC1 [US10172858, Table 2.69] | < 6.30 | < 6.30 | < 6.30

More lines, now with the values ahead:

pIC50 [1] | pIC50 [2] | pIC50 [3] | Compound
 | < 6.30 |  | COc1cccc2cc(-c3nn(C4CCOCC4)c4ncnc(N)c34)[nH]c12 [US10172858, Table 2.63]
 | < 6.30 |  | Nc1ncnc2c1c(-c1cc3cc(O)cc(Cl)c3[nH]1)nn2C1CCOCC1 [US10172858, Table 2.68]
 | < 6.30 |  | CC(=O)N1CCC(n2nc(-c3cc4cc(O)cc(Cl)c4[nH]3)c3c(N)ncnc32)CC1 [US10172858, Table 2.70]
